From patent US20010021697A1, “METHODS AND COMPOSITIONS FOR THE TREATMENT OF MAMMALIAN INFECTIONS EMPLOYING MEDICAMENTS COMPRISING HYMENOPTERA VENOM, PROTEINAGEOUS OR POLYPEPTIDE COMPONENTS THEREOF, OR ANALOGUES OF SUCH PROTEINACEOUS OR POLYPEPTIDE COMPONENTS” (priority 1987, published 2001)

Legend:
E. coli G1108E = assay: Checkerboard titration synergy assay of melittin analogues with polymyxin B; format: cell-based; settings: for relative in vitro activity, place in ascending order: 5 ug/ml peptide with 6 units/ml polymyxin B, delay time until mid-log phase (FIG. 26)
[1] = system: E. Coli strain No. G1108E; assay: Checkerboard titration synergy assay of natural melittin and analogue #6 with polymyxin B; format: cell-based; settings: for synergistic activity with polymyxin B compared with natural melittin: E. coli, 10 ug peptide + 6 units polymyxin B
[2] = system: 30 random strains of bacteria; settings: Sephadex G-50 purified melittin fraction; cited from earlier work
S. aureus [3] = assay: Equivalent doses of melittin fraction and whole honeybee venom with and without kanamycin (growth curves); format: cell-based; settings: for MEAN A660: doses of what is present: KANA = 2.5, MEL = 1.6, HBV = 2 (ug/ml)
[4] = Relative activity of analogues with respect to native melittin; format: cell-based
Procedure: Also some of then analogues mentioned above were tested to determine their relative activities with respect to native melittin. The relative activity is calculated as follows: [formula]

E. coli = assay: Automated MIC assay (Sensititre) of antibiotics with and without HBV; format: cell-based; settings: with vs without 4 ug/ml HBV
Streptococcus faecalis = assay: as above; format: cell-based; settings: Streptococcus faecalis strain 81-; with vs without 4 ug/ml HBV
S. epidermidis = assay: as above; format: cell-based; settings: with vs without 4 ug/ml HBV
S. aureus [5] = assay: as above; format: cell-based; settings: with vs without 4 ug/ml HBV
[6] = 0 hrs, doses of what is present: Polymyxin B 3 units, peptide 5 ug
[7] = 0 hrs, doses of what is present: Polymyxin B 6 units, peptide 10 ug
[8] = 2 hrs, doses of what is present: Polymyxin B 3 units, peptide 5 ug
[9] = 2 hrs, doses of what is present: Polymyxin B 6 units, peptide 10 ug
[10] = 4 hrs, doses of what is present: Polymyxin B 3 units, peptide 5 ug
[11] = 4 hrs, doses of what is present: Polymyxin B 6 units, peptide 10 ug
[12] = 6 hrs, doses of what is present: Polymyxin B 3 units, peptide 5 ug
[13] = 6 hrs, doses of what is present: Polymyxin B 6 units, peptide 10 ug
[14] = 8 hrs, doses of what is present: Polymyxin B 3 units, peptide 5 ug
[15] = 8 hrs, doses of what is present: Polymyxin B 6 units, peptide 10 ug
[16] = 12 hrs, doses of what is present: Polymyxin B 3 units, peptide 5 ug
[17] = 12 hrs, doses of what is present: Polymyxin B 6 units, peptide 10 ug
[18] = S. aureus strain QC (printed 0C)

Melittin (1-20) - Lys-Arg-Lys-Arg-Gly-Gly-NH2 [Analogue #4]
relative in vitro activity, place in ascending order (E. coli G1108E): 7

Melittin (1-20)-Lys-Arg-Lys-Arg-Gln-Gln-NH2.
Average optical densities (OD660) [1, 6]: .013 | Average optical densities (OD660) [1, 7]: .013 | Average optical densities (OD660) [1, 8]: .072 | Average optical densities (OD660) [1, 9]: .072 | Average optical densities (OD660) [1, 10]: .833 | Average optical densities (OD660) [1, 11]: .0827 | Average optical densities (OD660) [1, 12]: 1.10 | Average optical densities (OD660) [1, 13]: 1.09 | Average optical densities (OD660) [1, 14]: 1.11 | Average optical densities (OD660) [1, 15]: 1.10 | Average optical densities (OD660) [1, 16]: 1.18 | Average optical densities (OD660) [1, 17]: 1.19 | antibacterial activity [2]: potent antibacterial activity | MEAN A660 (S. aureus [3]; T0): 0.021 | MEAN A660 (S. aureus [3]; T2): 0.080 | MEAN A660 (S. aureus [3]; T4): 0.374 | MEAN A660 (S. aureus [3]; T6): 1.099 | MEAN A660 (S. aureus [3]; T8): 1.288 | MEAN A660 (S. aureus [3]; T12): 1.339 | MEAN A660 (S. aureus [3]; T24): 1.415 | antibacterial activity of the melittin fraction compared with whole HBV, in combination with kanamycin (S. aureus [3]; equivalent doses with equal doses of kanamycin (FIG. 15)): None of the optical densities at any time point on the two curves are significantly different | antibacterial activity of the melittin fraction compared with whole HBV (S. aureus [3]; equivalent doses, without antibiotic (FIG. 14)): No significant differences | relative in vitro activity, place in ascending order (E. coli G1108E): 2 | effect of the peptide alone on the growth of E. coli (E. coli G1108E; used alone at 10 ug/ml or less): no effect

Melittin (1-20) - NH2 [Analogue #1]
Relative Activity [4]: 20%

Gentamicin
effect of 4 ug/ml HBV on the MIC of the antibiotic (E. coli; E. coli strain 1173): − (A (−) indicates a MIC decrease of less than two dilution steps.) | effect of 4 ug/ml HBV on the MIC of the antibiotic (E. coli; E. coli strain 4302): + (A (+) indicates a MIC decrease greater than or equal to two dilution steps.) | effect of 4 ug/ml HBV on the MIC of the antibiotic (E. coli; E. coli strain 19033): + (A (+) indicates a MIC decrease greater than or equal to two dilution steps.) | effect of 4 ug/ml HBV on the MIC of the antibiotic (E. coli; E. coli strain QC): + (A (+) indicates a MIC decrease greater than or equal to two dilution steps.) | effect of 4 ug/ml HBV on the MIC of the antibiotic (Streptococcus faecalis): − (A (−) indicates a MIC decrease of less than two dilution steps.) | effect of 4 ug/ml HBV on the MIC of the antibiotic (S. epidermidis; S. epidermidis strain 5905): − (A (−) indicates a MIC decrease of less than two dilution steps.) | effect of 4 ug/ml HBV on the MIC of the antibiotic (S. epidermidis; S. epidermidis strain 5907): − (A (−) indicates a MIC decrease of less than two dilution steps.) | effect of 4 ug/ml HBV on the MIC of the antibiotic (S. epidermidis; S. epidermidis strain 7905): − (A (−) indicates a MIC decrease of less than two dilution steps.) | effect of 4 ug/ml HBV on the MIC of the antibiotic (S. epidermidis; S. epidermidis strain 7908): + (A (+) indicates a MIC decrease greater than or equal to two dilution steps.) | effect of 4 ug/ml HBV on the MIC of the antibiotic (S. epidermidis; S. epidermidis strain 39817): + (A (+) indicates a MIC decrease greater than or equal to two dilution steps.) | effect of 4 ug/ml HBV on the MIC of the antibiotic (S. aureus [5]; S. aureus strain 51072): +^ (A (+) indicates a MIC decrease greater than or equal to two dilution steps.) | effect of 4 ug/ml HBV on the MIC of the antibiotic (S. aureus [5]; [18]): +^ (A (+) indicates a MIC decrease greater than or equal to two dilution steps.)

Melittin (1-20) - Orn-Orn-Orn-Orn-Gln-Gln-NH2 [Analogue #2]
Relative Activity [4]: 200% | relative in vitro activity, place in ascending order (E. coli G1108E): 6

Penicillin
effect of 4 ug/ml HBV on the MIC of the antibiotic (Streptococcus faecalis): − (A (−) indicates a MIC decrease of less than two dilution steps.) | effect of 4 ug/ml HBV on the MIC of the antibiotic (S. epidermidis; S. epidermidis strain 5905): − (A (−) indicates a MIC decrease of less than two dilution steps.) | effect of 4 ug/ml HBV on the MIC of the antibiotic (S. epidermidis; S. epidermidis strain 5907): − (A (−) indicates a MIC decrease of less than two dilution steps.) | effect of 4 ug/ml HBV on the MIC of the antibiotic (S. epidermidis; S. epidermidis strain 7905): + (A (+) indicates a MIC decrease greater than or equal to two dilution steps.) | effect of 4 ug/ml HBV on the MIC of the antibiotic (S. epidermidis; S. epidermidis strain 7908): + (A (+) indicates a MIC decrease greater than or equal to two dilution steps.) | effect of 4 ug/ml HBV on the MIC of the antibiotic (S. epidermidis; S. epidermidis strain 39817): + (A (+) indicates a MIC decrease greater than or equal to two dilution steps.) | effect of 4 ug/ml HBV on the MIC of the antibiotic (S. aureus [5]; S. aureus strain 51072): +^6 (A (+) indicates a MIC decrease greater than or equal to two dilution steps.) | effect of 4 ug/ml HBV on the MIC of the antibiotic (S. aureus [5]; [18]): −^5 (A (−) indicates a MIC decrease of less than two dilution steps.)

Melittin (1-20) - Gly-Gly-Gly-Gly-Gln-Gln-NH2 [Analogue #7]
Relative Activity [4]: 20% | relative in vitro activity, place in ascending order (E. coli G1108E): 1

Synthetic Melittin: Synthetic melittin purchased from Peninsula Laboratories, Belmont, Calif.
relative in vitro activity, place in ascending order (E. coli G1108E): 5

H-Gly-Ile-Gly-Ala-Val-Leu-Lys-Val-Leu-Thr-Thr-Gly-Leu-Pro-Ala-Leu-Ile-Ser-Trp-Ile-Lys-Lys-Lys-Lys-Gln-Gln-NH2 (H-GIGAVLKVLTTGLPALISWIKKKKQQ-NH2) [Analogue #6]
Average optical densities (OD660) [1, 6]: .013 | Average optical densities (OD660) [1, 7]: .013 | Average optical densities (OD660) [1, 8]: .072 | Average optical densities (OD660) [1, 9]: .072 | Average optical densities (OD660) [1, 10]: .831 | Average optical densities (OD660) [1, 11]: .824 | Average optical densities (OD660) [1, 12]: 1.07 | Average optical densities (OD660) [1, 13]: 1.09 | Average optical densities (OD660) [1, 14]: 1.09 | Average optical densities (OD660) [1, 15]: 1.11 | Average optical densities (OD660) [1, 16]: 1.16 | Average optical densities (OD660) [1, 17]: 1.17 | synergistic activity with polymyxin B compared with natural melittin [1]: At no time could a significant difference be detected | synergistic activity with polymyxin B compared with natural melittin ([1]; listed as Analogue No. 6): activity equivalent to natural melittin | difference between the specific activities of melittin versus analogue #6 ([1]; estimated from Table 11): less than 10% | Relative Activity [4]: 100% | relative in vitro activity, place in ascending order (E. coli G1108E): 4

NPS-Melittin: o-nitrophenyl sulfenyl group attached to the number 19 tryptophan residue of natural melittin
relative in vitro activity, place in ascending order (E. coli G1108E): 3

Melittin (1-20) - Arg-Arg-Arg-Arg-Gln-Gln-NH2 [Analogue #5]
Relative Activity [4]: 300% | relative in vitro activity, place in ascending order (E. coli G1108E): 8

Venomycin
effect of 4 ug/ml HBV on the MIC of the antibiotic (Streptococcus faecalis): − (A (−) indicates a MIC decrease of less than two dilution steps.) | effect of 4 ug/ml HBV on the MIC of the antibiotic (S. epidermidis; S. epidermidis strain 5905): − (A (−) indicates a MIC decrease of less than two dilution steps.) | effect of 4 ug/ml HBV on the MIC of the antibiotic (S. epidermidis; S. epidermidis strain 5907): − (A (−) indicates a MIC decrease of less than two dilution steps.) | effect of 4 ug/ml HBV on the MIC of the antibiotic (S. epidermidis; S. epidermidis strain 7905): − (A (−) indicates a MIC decrease of less than two dilution steps.) | effect of 4 ug/ml HBV on the MIC of the antibiotic (S. epidermidis; S. epidermidis strain 7908): + (A (+) indicates a MIC decrease greater than or equal to two dilution steps.) | effect of 4 ug/ml HBV on the MIC of the antibiotic (S. epidermidis; S. epidermidis strain 39817): − (A (−) indicates a MIC decrease of less than two dilution steps.) | effect of 4 ug/ml HBV on the MIC of the antibiotic (S. aureus [5]; S. aureus strain 51072): +^ (A (+) indicates a MIC decrease greater than or equal to two dilution steps.) | effect of 4 ug/ml HBV on the MIC of the antibiotic (S. aureus [5]; [18]): +^ (A (+) indicates a MIC decrease greater than or equal to two dilution steps.)
